Assay results reported in patent US20260152491A1, “PESTICIDALLY ACTIVE HETEROCYCLIC DERIVATIVES WITH SULFUR CONTAINING SUBSTITUENTS” (SYNGENTA CROP PROTECTION AG, priority 2022, published 2026).

Columns and labels:
Format in all cases: in vivo
Chilo suppressalis = assay: Activity against Chilo suppressalis (striped rice stemborer), artificial diet in 24-well plates; settings: 144 h, application rate 200 ppm, L2 larvae, 6 days after infestation, in comparison to untreated samples, read-out: control (at least one of mortality, anti-feedant effect, growth inhibition)
Procedure: Example B1: Activity Against Chilo suppressalis (Striped Rice Stemborer)
24-well microtiter plates with artificial diet were treated with aqueous test solutions prepared from 10'000 ppm DMSO stock solutions by pipetting. After drying, the plates were infested with L2 larvae (6-8 per well). The samples were assessed for mortality, anti-feeding effect, and growth inhibition in comparison to untreated samples 6 days after infestation. Control of Chilo suppressalis by a test sample is given when at least one of the categories mortality, anti-feedant effect, and growth inhibition is higher than the untreated sample.

Diabrotica balteata = assay: Activity against Diabrotica balteata (corn root worm), maize sprouts sprayed; settings: 96 h, application rate 200 ppm, L2 larvae, 4 days after infestation, in comparison to untreated samples, read-out: effect in at least one of the two categories (mortality or growth inhibition)
Procedure: Example B2: Activity Against Diabrotica Balteata (Corn Root Worm)
Maize sprouts placed onto an agar layer in 24-well microtiter plates were treated with aqueous test solutions prepared from 10'000 ppm DMSO stock solutions by spraying. After drying, the plates were infested with L2 larvae (6 to 10 per well). The samples were assessed for mortality and growth inhibition in comparison to untreated samples 4 days after infestation.

Euschistus heros = assay: Activity against Euschistus heros (neotropical brown stink bug), soybean leaves sprayed; settings: 120 h, application rate 200 ppm, N2 nymphs, 5 days after infestation, in comparison to untreated samples, read-out: effect in at least one of the two categories (mortality or growth inhibition)
Procedure: Example B3: Activity Against Euschistus heros (Neotropical Brown Stink Bug)
Soybean leaves on agar in 24-well microtiter plates were sprayed with aqueous test solutions prepared from 10'000 ppm DMSO stock solutions. After drying the leaves were infested with N2 nymphs. The samples were assessed for mortality and growth inhibition in comparison to untreated samples 5 days after infestation.

Myzus persicae [1] = assay: Activity against Myzus persicae (green peach aphid), feeding/contact activity, sunflower leaf discs; settings: foliar, 144 h, application rate 200 ppm, aphid population of mixed ages, 6 days after infestation
Procedure: Example B4: Activity Against Myzus persicae (Green Peach Aphid) Feeding/Contact Activity
Sunflower leaf discs were placed onto agar in a 24-well microtiter plate and sprayed with aqueous test solutions prepared from 10'000 ppm DMSO stock solutions. After drying, the leaf discs were infested with an aphid population of mixed ages. The samples were assessed for mortality 6 days after infestation.

Myzus persicae [2] = assay: Activity against Myzus persicae (green peach aphid), systemic activity, pea seedling roots in test solution; settings: 144 h, test rate 24 ppm, aphid population of mixed ages, 6 days after placing seedlings into test solutions
Procedure: Example B5: Activity Against Myzus persicae (Green Peach Aphid) Systemic Activity
Roots of pea seedlings infested with an aphid population of mixed ages were placed directly into aqueous test solutions prepared from 10'000 DMSO stock solutions. The samples were assessed for mortality 6 days after placing seedlings into test solutions.

Plutella xylostella = assay: Activity against Plutella xylostella (diamond back moth), artificial diet in 24-well plates; settings: 192 h, application rate 200 ppm, eggs, 8 days after infestation, in comparison to untreated samples, read-out: effect in at least one of the two categories (mortality or growth inhibition)
Procedure: Example B6: Activity Against Plutella xylostella (Diamond Back Moth)
24-well microtiter plates with artificial diet were treated with aqueous test solutions prepared from 10'000 ppm DMSO stock solutions by pipetting. After drying, Plutella eggs were pipetted through a plastic stencil onto a gel blotting paper and the plate was closed with it. The samples were assessed for mortality and growth inhibition in comparison to untreated samples 8 days after infestation.

Spodoptera littoralis = assay: Activity against Spodoptera littoralis (Egyptian cotton leaf worm), cotton leaf discs sprayed; settings: foliar, 72 h, application rate 200 ppm, L1 larvae, 3 days after infestation, in comparison to untreated samples, read-out: control (at least one of mortality, anti-feedant effect, growth inhibition)
Procedure: Example B7: Activity Against Spodoptera littoralis (Egyptian Cotton Leaf Worm)
Cotton leaf discs were placed onto agar in 24-well microtiter plates and sprayed with aqueous test solutions prepared from 10'000 ppm DMSO stock solutions. After drying the leaf discs were infested with five L1 larvae. The samples were assessed for mortality, anti-feeding effect, and growth inhibition in comparison to untreated samples 3 days after infestation. Control of Spodoptera littoralis by a test sample is given when at least one of the categories mortality, anti-feedant effect, and growth inhibition is higher than the untreated sample.

CCS(=O)(=O)c1cc(C2(C#N)CC2)cnc1-c1coc2cc(Cl)ccc2c1=O [P.1, 1-[6-(7-chloro-4-oxo-chromen-3-yl)-5-ethylsulfonyl-3-pyridyl]-cyclopropanecarbonitrile]
≥ 80%: percent control (mortality, anti-feedant effect or growth inhibition) at 200 ppm (Chilo suppressalis) | percent effect (mortality or growth inhibition) at 200 ppm (Diabrotica balteata) | percent effect (mortality or growth inhibition) at 200 ppm (Euschistus heros) | mortality at 200 ppm (Myzus persicae [1]) | mortality at 24 ppm (Myzus persicae [2]) | percent effect (mortality or growth inhibition) at 200 ppm (Plutella xylostella) | percent control (mortality, anti-feedant effect or growth inhibition) at 200 ppm (Spodoptera littoralis)

CCS(=O)(=O)c1cc(C2(C#N)CC2)cnc1-c1coc2cc(I)ccc2c1=O [P.2, 1-[5-ethylsulfonyl-6-(7-iodo-4-oxo-chromen-3-yl)-3-pyridyl]cyclopropanecarbonitrile]
≥ 80%: percent control (mortality, anti-feedant effect or growth inhibition) at 200 ppm (Chilo suppressalis) | percent effect (mortality or growth inhibition) at 200 ppm (Diabrotica balteata) | percent effect (mortality or growth inhibition) at 200 ppm (Euschistus heros) | mortality at 200 ppm (Myzus persicae [1]) | percent effect (mortality or growth inhibition) at 200 ppm (Plutella xylostella) | percent control (mortality, anti-feedant effect or growth inhibition) at 200 ppm (Spodoptera littoralis)

CCS(=O)(=O)c1cc(C2(C#N)CC2)cnc1-c1coc2cc(Br)ccc2c1=O [P.3, 1-[6-(7-bromo-4-oxo-chromen-3-yl)-5-ethylsulfonyl-3-pyridyl]-cyclopropanecarbonitrile]
≥ 80%: percent control (mortality, anti-feedant effect or growth inhibition) at 200 ppm (Chilo suppressalis) | percent effect (mortality or growth inhibition) at 200 ppm (Diabrotica balteata) | percent effect (mortality or growth inhibition) at 200 ppm (Euschistus heros) | percent effect (mortality or growth inhibition) at 200 ppm (Plutella xylostella) | percent control (mortality, anti-feedant effect or growth inhibition) at 200 ppm (Spodoptera littoralis)

CCS(=O)(=O)c1cc(C2(C#N)CC2)cnc1-c1coc2cc(F)ccc2c1=O [P.4, 1-[5-ethylsulfonyl-6-(7-fluoro-4-oxo-chromen-3-yl)-3-pyridyl]cyclopropane-carbonitrile]
≥ 80%: percent control (mortality, anti-feedant effect or growth inhibition) at 200 ppm (Chilo suppressalis) | percent effect (mortality or growth inhibition) at 200 ppm (Diabrotica balteata) | percent effect (mortality or growth inhibition) at 200 ppm (Euschistus heros) | mortality at 24 ppm (Myzus persicae [2]) | percent effect (mortality or growth inhibition) at 200 ppm (Plutella xylostella) | percent control (mortality, anti-feedant effect or growth inhibition) at 200 ppm (Spodoptera littoralis)

CCS(=O)(=O)c1cc(C2(C#N)CC2)cnc1-c1coc2cc(C3CC3)ccc2c1=O [P.5, 1-[6-(7-cyclopropyl-4-oxo-chromen-3-yl)-5-ethylsulfonyl-3-pyridyl]-cyclopropane-carbonitrile]
≥ 80%: percent control (mortality, anti-feedant effect or growth inhibition) at 200 ppm (Chilo suppressalis) | percent effect (mortality or growth inhibition) at 200 ppm (Diabrotica balteata) | percent effect (mortality or growth inhibition) at 200 ppm (Euschistus heros) | percent effect (mortality or growth inhibition) at 200 ppm (Plutella xylostella) | percent control (mortality, anti-feedant effect or growth inhibition) at 200 ppm (Spodoptera littoralis)

CCS(=O)(=O)c1cc(C2(C#N)CC2)cnc1-c1coc2cc(-c3ccc(F)cc3)ccc2c1=O [P.6, 1-[5-ethylsulfonyl-6-[7-(4-fluorophenyl)-4-oxo-chromen-3-yl]-3-pyridyl]cyclopropane-carbonitrile]
≥ 80%: percent effect (mortality or growth inhibition) at 200 ppm (Diabrotica balteata) | percent effect (mortality or growth inhibition) at 200 ppm (Plutella xylostella) | percent control (mortality, anti-feedant effect or growth inhibition) at 200 ppm (Spodoptera littoralis)

CCS(=O)(=O)c1cc(C2(C#N)CC2)cnc1-c1coc2cc(-c3cc(F)cc(F)c3)ccc2c1=O [P.7, 1-[6-[7-(3,5-difluorophenyl)-4-oxo-chromen-3-yl]-5-ethylsulfonyl-3-pyridyl]-cyclopropanecarbonitrile]
≥ 80%: percent control (mortality, anti-feedant effect or growth inhibition) at 200 ppm (Chilo suppressalis) | percent effect (mortality or growth inhibition) at 200 ppm (Diabrotica balteata) | percent effect (mortality or growth inhibition) at 200 ppm (Euschistus heros) | percent effect (mortality or growth inhibition) at 200 ppm (Plutella xylostella) | percent control (mortality, anti-feedant effect or growth inhibition) at 200 ppm (Spodoptera littoralis)
